This is an account of results in the supplement of paper PMC10307832.

Common to all, as to experiment: relative viability (nuclei count vs DMSO), 5 days (fraction); higher = more cells survive
Compound in one assay: COc1cc2/c(=N/c3ccc(Br)cc3F)nc[nH]c2cc1OCC1CCN(C)CC1 [Vandetanib]
Put shortly:
(§1)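 Lung cancer cell lines in 1536-well plates were exposed by pinning to five library-drug doses (not always all listed) √10 apart, following an overnight hold at 37 °C. MetaXpress counted Hoechst-stained nuclei from 4× images taken after 5 days without medium change. Viability is the median ratio of treated-well to vehicle-well nuclei across plates. Plates required control CV below 25% and at least one doubling.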

Compound in another assay: COc1cc(N2CCC(N3CCN(C)CC3)CC2)ccc1Nc1ncc(Cl)c(Nc2ccccc2S(=O)(=O)C(C)C)n1 [NVP-TAE684]
The method in brief:
as §1

Compound in assay [1]: C1=CC=C2C(=C1)N=C(S2)C(C#N)C3=NC(=NC=C3)NCCC4=CN=CC=C4
The method in brief:
as §1

Compound in another assay: C#Cc1cccc(Nc2ncnc3cc(OC)c(OCCCCCCC(=O)NO)cc23)c1 [CUDC-101]
The method in brief:
as §1

UMC-11: the relative viability was 0.94 in the assay with Vandetanib (0.02 µM); 0.901 with Vandetanib (0.06325 µM); 0.9 with Vandetanib (0.2 µM); 0.91 with Vandetanib (0.6325 µM); 0.964 with Vandetanib (2 µM); 1.04 with NVP-TAE684 (0.2 µM). For the same cell line, the relative viability in the assay with NVP-TAE684 (0.6325 µM) stood at 0.876; in the assay with NVP-TAE684 (2 µM) it was 0.465; in assay [1] (0.005 µM) it was 0.884; in assay [1] (0.01581 µM) it was 1.01; in assay [1] (0.05 µM) it was 0.96; in assay [1] (0.1581 µM), 1.16. The relative viability was 0.967 in assay [1] (0.5 µM); 1.03 with CUDC-101 (0.01 µM); 0.957 in the assay with CUDC-101 (0.03162 µM); 0.927 in the assay with CUDC-101 (0.1 µM); 0.705 with CUDC-101 (0.3162 µM); 0.31 in the assay with CUDC-101 (1 µM).
